Experiments:
Test in all cases: Test D
Format in all cases: in vivo
Details in all cases: PREEMERGENCE
[1] = test system: Italian ryegrass (Lolium multiflorum)
kochia (Kochia scoparia) = test system: kochia (Kochia scoparia)
[2] = test system: galium 2 (Galium aparine); parameters: key: 0 is no effect; 100 is complete control
[3] = test system: spring wheat (Triticum aestivum)
[4] = test system: windgrass (Apera spica-venti); parameters: key: 0 is no effect; 100 is complete control
[5] = test system: wild buckwheat (Polygonum convolvulus)
[6] = test system: downy brome (Bromus tectorum)
[7] = test system: blackgrass (Alopecurus myosuroides)
[8] = test system: field violet (Viola arvensis); parameters: key: 0 is no effect; 100 is complete control
[9] = test system: redroot pigweed (Amaranthus retroflexus)
[10] = test system: jointed goatgrass (Aegilops cylindrica)
[11] = test system: lambsquarters (Chenopodium album)

Row | Compound | Plant response rating, I. Ryegrass ([1]; Rate 31 g/ha) | Plant response rating, I. Ryegrass ([1]; Rate 62 g/ha) | Plant response rating, Kochia (kochia (Kochia scoparia); Rate 31 g/ha) | Plant response rating, Kochia (kochia (Kochia scoparia); Rate 62 g/ha) | Plant response rating, Galium ([2]; Rate 31 g/ha) | Plant response rating, Galium ([2]; Rate 62 g/ha) | Plant response rating, Spring Wheat ([3]; Rate 31 g/ha) | Plant response rating, Spring Wheat ([3]; Rate 62 g/ha) | Plant response rating, Windgrass ([4]; Rate 31 g/ha) | Plant response rating, Windgrass ([4]; Rate 62 g/ha) | Plant response rating, Wild buckwheat ([5]; Rate 31 g/ha) | Plant response rating, Wild buckwheat ([5]; Rate 62 g/ha) | Plant response rating, Downy brome ([6]; Rate 31 g/ha) | Plant response rating, Downy brome ([6]; Rate 62 g/ha) | Plant response rating, Blackgrass ([7]; Rate 31 g/ha) | Plant response rating, Blackgrass ([7]; Rate 62 g/ha) | Plant response rating, Field violet ([8]; Rate 31 g/ha) | Plant response rating, Field violet ([8]; Rate 62 g/ha) | Plant response rating, Redroot pigweed ([9]; Rate 31 g/ha) | Plant response rating, Redroot pigweed ([9]; Rate 62 g/ha) | also measured
1 | CCc1cnc(-n2ccc(C(F)(F)F)n2)nc1Cc1cccc(C(F)(F)F)c1 [Compound 46] | 60 | 60 | 60 | 60 | 60 | 60 | 30 | 10 | 40 | 100 | 40 | 40 | 70 | 70 | 10 | 60 | 85 | 100 | 70 | 70 | Plant response rating, Jointed goatgra ([10]; Rate 31 g/ha): 50; Plant response rating, Jointed goatgra ([10]; Rate 62 g/ha): 60; Plant response rating, Lambsquarters ([11]; Rate 31 g/ha): 65; Plant response rating, Lambsquarters ([11]; Rate 62 g/ha): 70
2 | Cc1cnc(-n2cnc(C(F)(F)F)n2)nc1Cn1ccc(C(F)(F)F)n1 [Compound 51] | 60 | 90 | 85 | 80 | 100 | 100 | 60 | 70 | 100 | 100 | 90 | 90 | 80 | 80 | 60 | 80 | 65 | 65 | 70 | 70 | Plant response rating, Jointed goatgra ([10]; Rate 31 g/ha): 60; Plant response rating, Jointed goatgra ([10]; Rate 62 g/ha): 90; Plant response rating, Lambsquarters ([11]; Rate 31 g/ha): 70; Plant response rating, Lambsquarters ([11]; Rate 62 g/ha): 70

— US6525001B1, “Substituted pyrimidine and pyridine herbicides” (Mid-American Commercialization Corporation, priority 1997, dated 2003)
